Measured values published in patent US20050208549A1, “Testing endosymbiont cellular organelles and compounds identifiable therewith” (priority 2000, published 2005).

What was measured:
[1] = tested on: Fibroblast cells; test: NASBA ratio of mitochondrial DNA to chromosomal DNA in cultured fibroblast cells; format: cell-based; conditions: culture period of four weeks, antiviral drugs at 3 μM and 30 μM
Protocol: (§1) In Table 1, the primers and probes used in the examples are summarized. Standard NASBA nucleic acid amplification reactions were performed in a 20 μl reaction volume and contained: 40 mM Tris-pH 8.5, 70 mM KCl, 12 mM MgCl2, 5 mM dithiothreitol, 1 mM dNTPs (each), 2 mM rNTPs (each), 0.2 μM primer (each), 0.05 μM molecular beacon, 375 mM sorbitol, 0.105 μg/μl bovine serum albumin, 6.4 units AMV RT, 32 units T7 RNA polymerase, 0.08 units RNAse H and input nucleic acid. The complete mixture, except the enzymes, sorbitol and/or bovine serum albumin was, prior to adding the enzyme mixture, heated to 65° C. for two minutes in order to denature any secondary structure in the RNA and to allow the primers to anneal. After cooling the mixture to 41° C., the enzymes were added. The amplification took place at 41° C. for 90 minutes in a fluorimeter (CytoFluor 2000) and the fluorescent signal was measured every minute (using the filter set 530/25 nm and 485/30 nm). […]
(§2) To achieve quantification, a dilution series of target sequences for a particular primer set was amplified and the time points at which the reactions became positive (the time to positivity, TTP) were plotted against the input amounts of nucleic acid. This way a calibration curve was created that could be used to read TTP values of reactions with unknown amounts of input and deduce the input amount. […]

[2] = tested on: Fibroblast cells; test: NASBA ratio of mitochondrial RNA to mitochondrial DNA in cultured fibroblast cells; format: cell-based; conditions: culture period of four weeks, antiviral drugs at 3 μM and 30 μM
Protocol: as §1, §2

SMILES: Cc1cn([C@H]2C[C@H](N=[N+]=[N-])[C@@H](CO)O2)c(=O)[nH]c1=O [AZT]
- change in mitochondrial DNA to chromosomal DNA ratio [1]: no measurable change
- change in mitochondrial RNA to mitochondrial DNA ratio [2]: no measurable change
